# “And” between values parts separate entries of the source, which are not always exact repeats. Identical values can stand only once.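 Tested at 5 concentrations; 48 h exposure; 96-well plates; endpoints linearly interpolated, else capped at highest concentration. Abbreviation: GI50, concentration required for 50% inhibition of growth. The concentration for full growth arrest is given as TGI.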
# Experiments:
# Experiment in all cases: growth of human tumour cells (NCI), 48 h
# HT29 colon = test system: HT29 colon
# MOLT-4 leukemia = test system: MOLT-4 leukemia
# NCI-H23 lung = test system: NCI-H23 lung
# OVCAR-3 ovarian = test system: OVCAR-3 ovarian
# SF-268 CNS = test system: SF-268 CNS
# SR leukemia = test system: SR leukemia
# UACC-257 melanoma = test system: UACC-257 melanoma
# UACC-62 melanoma = test system: UACC-62 melanoma
# MCF7 breast = test system: MCF7 breast
# PC-3 prostate = test system: PC-3 prostate
Structure (SMILES),TGI (HT29 colon) [µM],TGI (MOLT-4 leukemia),TGI (NCI-H23 lung),TGI (OVCAR-3 ovarian) [µM],TGI (SF-268 CNS),TGI (SR leukemia) [µM],TGI (UACC-257 melanoma),TGI (UACC-62 melanoma) [µM],GI50 (HT29 colon) [µM],GI50 (MCF7 breast) [µM],TGI (MCF7 breast) [µM],GI50 (MOLT-4 leukemia) [nM],GI50 (NCI-H23 lung) [µM],GI50 (OVCAR-3 ovarian) [µM],GI50 (PC-3 prostate) [µM],TGI (PC-3 prostate) [µM],GI50 (SF-268 CNS) [µM],GI50 (UACC-257 melanoma) [µM],GI50 (UACC-62 melanoma) [µM]
O=C(/C=N/O)Nc1cccc(Cl)c1I,> 100,> 100 µM,> 100 µM,> 100,> 100 µM,> 100,> 100 µM,> 100,,,,,,,,,,,
Cc1ccc(/C=C2\CCCC(C(NO)c3ccc(C)cc3)C2=NO)cc1 (stereo unspecified),37.9,42.6 µM,73.2 µM,43.7,66.6 µM,,> 100 µM,> 100,,,,,,,,,,,
CCOc1ccccc1NC(=O)C1=C(C)NC(C)=C(C(=O)Nc2ccccc2OCC)C1c1ccc2c(c1)OCO2,> 100,75.3 µM,> 100 µM,71.8,> 100 µM,,> 100 µM,,,,,,,,,,,,
CCOC(=O)c1cnc2c(ccc3ncccc32)c1OCC,> 100,> 100 µM,> 100 µM,> 100,> 100 µM,> 100,> 100 µM,> 100,,,,,,,,,,,
COc1ccc(S(=O)(=O)NNS(C)(=O)=O)cc1OC,> 100,> 100 µM,> 100 µM,,> 100 µM,> 100,> 100 µM,> 100,,,,,,,,,,,
Clc1ccc(/C=C/c2csnn2)cc1,> 100,> 100 µM,> 100 µM,> 100,> 100 µM,,> 100 µM,> 100,,,,,,,,,,,
Cc1ccc(-n2cc(/C(N)=N/O)c3ccccc3c2=O)cc1,> 100,> 100 µM,> 100 µM,> 100,> 100 µM,> 100,> 100 µM,> 100,,,,,,,,,,,
Nc1nc2c([nH]1)c1[nH]c3ccccc3c1c1[nH]c3ccccc3c21,17.4,6.16 µM,29.5 µM,25.7,32.6 µM,,33.4 µM,30,5.5,4.47,21.1,1890,13.7,12.6,11,23.1,16.2,18.5,15.9
Cc1cc2nc3c(C(OC4OC(CO)C(O)C(O)C4O)C(O)CO)nn(-c4ccc(F)cc4)c3nc2cc1C (stereo unspecified),> 100,> 100 µM,> 100 µM,> 100,> 100 µM,> 100,> 100 µM,> 100,,,,,,,,,,,
CC1(C)N=C(N)N=C(N)N1c1ccc(CCCCCCc2ccc(S(=O)(=O)F)cc2)cc1,17.1,,12.6 µM,32.4,31.3 µM,,,0.604,,,> 32.3,,,,,15.4,,,
COc1ccc(C2C(C(=O)O)=C(COC(C)=O)Oc3cc4c(cc32)OCO4)c(OC)c1 (stereo unspecified),> 100,> 100 µM,> 100 µM,> 100,,,> 100 µM,> 100,,,,,,,,,,,
O=S1(=O)CS(=O)(=O)OCCCCCO1,> 100,,> 100 µM,,> 100 µM,,> 100 µM,> 100,,,,,,,,,,,
Nc1cccc(C(=O)/C=C/c2ccccc2O)c1,> 100,> 100 µM,> 100 µM,> 100,> 100 µM,> 100,> 100 µM,> 100,,,,,,,,,,,
Cc1cccc(NC(=O)CSc2nnc(-c3ccc(N=Cc4ccc(Cl)cc4)cc3)o2)c1,> 100,> 100 µM,> 100 µM,,> 100 µM,> 100,> 100 µM,> 100,,,,,,,,,,,
NC(=O)C1C(=O)Oc2cccnc21 (stereo unspecified),> 100,> 100 µM,> 100 µM,> 100,,,> 100 µM,> 100,,,,,,,,,,,
c1ccc2c(c1)n1nnnc1c1nnnn21,> 100,> 100 µM,> 100 µM,> 100,> 100 µM,,> 100 µM,> 100,,,,,,,,,,,
C=C(c1ccc(C(=O)NCCCn2ccnc2)cc1)c1cc2c(cc1C)C(C)(C)CCC2(C)C,6.8,> 100 µM,66.5 µM,6.09,> 100 µM,,7.53 µM,3.92,0.509,1.25,13.8,2650,3.69,1.69,0.158,> 51.7,3.83,,1.67

Structure (SMILES),TGI (HT29 colon) [µM],TGI (MOLT-4 leukemia),TGI (NCI-H23 lung),TGI (OVCAR-3 ovarian) [µM],TGI (SF-268 CNS),TGI (SR leukemia) [µM],TGI (UACC-257 melanoma),TGI (UACC-62 melanoma) [µM],GI50 (HT29 colon) [µM],GI50 (MCF7 breast) [µM],TGI (MCF7 breast) [µM],GI50 (MOLT-4 leukemia) [nM],GI50 (NCI-H23 lung) [µM],GI50 (OVCAR-3 ovarian) [µM],GI50 (PC-3 prostate) [µM],TGI (PC-3 prostate) [µM],GI50 (SF-268 CNS) [µM],GI50 (UACC-257 melanoma) [µM],GI50 (UACC-62 melanoma) [µM]
COc1ccc2c(c1)CCC1C2CCC2(C)C(NC(=O)CCCCC3CCSS3)CCC12 (stereo unspecified),39.2,> 100 µM,> 100 µM,> 100,> 100 µM,,> 100 µM,> 100,4.3,39.7,> 100,4150,> 100,12.6,7.18,> 100,6.85,31.8,15
COc1cc([C@H]2c3cc4c(cc3[C@H](NCc3ccc(F)cc3)C3COC(=O)[C@H]32)OCO4)cc(OC)c1O (stereo partly specified),27,6.42 µM,6.34 µM,29.3,> 100 µM,,43.6 µM,6.68,,,,,,,,,,,
COc1ccc(/C(C#N)=C2/O/C(=N/N)C(c3ccc(OC)c(OC)c3)C2=O)cc1OC (stereo unspecified),> 100,> 100 µM,> 100 µM,> 100,> 100 µM,> 100,> 100 µM,> 100,,,,,,,,,,,
Cc1c(C(=O)/C=C/c2ccc3c(c2)OCO3)[n+](=O)c2ccccc2n1[O-],56.4,73.9 µM,42.4 µM,83.3,> 100 µM,> 100,> 100 µM,75.2,,,,,,,,,,,
COc1ccc(C2NC(c3ccc(OC)cc3)C(C)C(=O)C2C)cc1 (stereo unspecified),> 100,> 100 µM,> 100 µM,> 100,> 100 µM,,> 100 µM,> 100,,,,,,,,,,,
CCOC(=O)C(=O)Nc1nc2ccc(OC)cc2s1,> 100,> 100 µM,> 100 µM,> 100,> 100 µM,,> 100 µM,> 100,,,,,,,,,,,
Clc1cc(Cl)cc(Nc2ccc3c(OCCCN4CCOCC4)cccc3n2)c1,3.39,5.61 µM,10.2 µM,9.63,9.63 µM,,4.31 µM,4.57,1.76,1.74,3.48,2250,2.94,2.92,1.94,4.69,3,2.05,2.01
Nc1c([N+](=O)[O-])ncn1C1OC(CO)C(O)C1O (stereo unspecified),> 100,> 100 µM,> 100 µM,> 100,> 100 µM,,> 100 µM,> 100,> 100,> 100,> 100,> 100000,> 100,> 100,> 100,> 100,> 100,> 100,> 100
COc1ccc(C2=NOC3=c4ccccc4=CSC3=C2c2ccccc2)cc1,> 100,> 100 µM,> 100 µM,79.5,79.6 µM,,> 100 µM,85,37.1,24.2,62.9,> 100000,46.2,25,20.5,> 100,23.5,69.6,22
O=C(Cn1ccnc1[N+](=O)[O-])NCc1ccc(F)cc1,> 100,> 100 µM,> 100 µM,> 100,> 100 µM,,> 100 µM,> 100,,,,,,,,,,,
O=C(N[C@H]1CC2(C=C(I)C(=O)C(I)=C2)OC1=O)OCc1ccccc1,35.8,,32.6 µM,31.3,33.1 µM,,32.4 µM,30.2,,,,,,,,,,,
COc1cc(COC(=O)N(C)[C@@H](Cc2ccccc2)C(=O)O)c([N+](=O)[O-])cc1OC,> 100,> 100 µM,> 100 µM,> 100,> 100 µM,,> 100 µM,> 100,,,> 100,,,,,> 100,,,
COc1cc2c(c(OC)c1OC)-c1ccc(SC)c(=O)cc1C(CC(=O)Oc1ccccc1F)C2 (stereo unspecified),0.0324,> 7.5 µM,0.0894 µM,0.0272,> 7.5 µM,> 7.5,,0.0688,,,,,,,,,,,
Cc1cn([C@H]2CN(O)C[C@@H](CO)O2)c(=O)[nH]c1=O,,> 100 µM,,,> 100 µM,,> 100 µM,> 100,,,> 100,,,,,> 100,,,
O=C(CC/C(CC(=O)c1ccc(Cl)cc1)=N\O)Nc1cccc(Cl)c1,> 100,> 100 µM,> 100 µM,> 100,> 100 µM,,> 100 µM,> 100,,,,,,,,,,,
CC(=O)O[C@H]1C(=O)[C@@]2(C)C([C@H](OC(=O)c3ccccc3)[C@]3(O)C[C@H](OC(=O)[C@H](O)[C@@H](NC(=O)c4ccc(Cl)cc4)c4ccccc4)C(C)=C1C3(C)C)C1(OC(C)=O)CO[C@@H]1C[C@@H]2O (stereo partly specified),10.4,25 µM and 4.77 µM,25 µM and > 100 µM,0.108,25 µM and 82.5 µM,,25 µM and 36.8 µM,0.178,,,25,,,,,0.217,,0.013,

# Reference: PubChem BioAssay (NCI)
